What was measured:
[1] = Solubility test in cyclohexanone (residue after dissolution); type: physicochemical; conditions: 1 part by weight in 5 parts by weight of cyclohexanone, 40° C., 3 hours, ultrasonic waves, filtered
Procedure: (1-2) Solubility Test Method
1 part by weight of sulfonic acid (salt) diol compound was added to 5 parts by weight of cyclohexanone, and dissolution was carried out at 40° C. for 3 hours using ultrasonic waves. A solution thus obtained was filtered, and the presence/absence of a residue after dissolution was checked.

[2] = background statement; cited from earlier work

SMILES	presence/absence of a residue after dissolution [1]	solubility in organic solvents [2]
O=S(=O)([O-])CCN(CCO)CCO.[Li+]	a residue was found	–
O=S(=O)([O-])CCN(CCO)CCO.[Na+]	a residue was found	–
O=S(=O)([O-])CCN(CCO)CCO.[K+]	a residue was found	–
O=S(=O)(O)CCN(CCO)CCO [N,N-bis(2-hydroxyethyl)-2-aminoethanesulfonic acid]	a residue was found	does not dissolve in organic solvents

— US7737305B2, “Sulfonic acid polyol compound, polyurethane resin, polyurethane resin for magnetic recording medium, and magnetic recording medium” (FUJIFILM Corporation, priority 2007, dated 2010)
